Source: PubChem BioAssay AID1963847 (Molecular Pharmacology Branch, DTP, NCI, 2024)

System: 415267-285-R-J2-PDC complex spheroid viability
Assay: Anticancer human tumor 415267-285-R-J2-PDC patient-derived breast carcinoma cell line growth inhibition [POLQ]
Conditions: for IC50: curve of first compound; for viability, T/C: stronger effect = lower value
Method in brief: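 Growth inhibition in 3D: complex spheroids (tumor PDC, HUVEC, MSC) treated with POLQ inhibitor combinations; where Cmax unknown, highest tested concentration 10 microM, except SN-38 at 1 microM.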

[1] = second compound 0.0316 µM, first compound 0.0316 µM
[2] = second compound 0.0316 µM, first compound 0.1 µM
[3] = second compound 0.0316 µM, first compound 0.316 µM
[4] = second compound 0.0316 µM, first compound 1 µM
[5] = second compound 0.0316 µM, first compound 3.16 µM
[6] = second compound 0.0316 µM, first compound 10 µM
[7] = second compound 0.1 µM, first compound 0.0316 µM
[8] = second compound 0.1 µM, first compound 0.1 µM
[9] = second compound 0.1 µM, first compound 0.316 µM
[10] = second compound 0.1 µM, first compound 1 µM
[11] = second compound 0.1 µM, first compound 3.16 µM
[12] = second compound 0.1 µM, first compound 10 µM
[13] = second compound 0.316 µM, first compound 0.0316 µM
[14] = second compound 0.316 µM, first compound 0.1 µM
[15] = second compound 0.316 µM, first compound 0.316 µM
[16] = second compound 0.316 µM, first compound 1 µM
[17] = second compound 0.316 µM, first compound 3.16 µM
[18] = second compound 0.316 µM, first compound 10 µM
[19] = second compound 1 µM, first compound 0.0316 µM
[20] = second compound 1 µM, first compound 0.1 µM
[21] = second compound 1 µM, first compound 0.316 µM
[22] = second compound 1 µM, first compound 1 µM
[23] = second compound 1 µM, first compound 3.16 µM
[24] = second compound 1 µM, first compound 10 µM
[25] = second compound 3.16 µM, first compound 0.0316 µM
[26] = second compound 3.16 µM, first compound 0.1 µM
[27] = second compound 3.16 µM, first compound 0.316 µM
[28] = second compound 3.16 µM, first compound 1 µM
[29] = second compound 3.16 µM, first compound 3.16 µM
[30] = second compound 3.16 µM, first compound 10 µM
[31] = second compound 10 µM, first compound 0.0316 µM
[32] = second compound 10 µM, first compound 0.1 µM
[33] = second compound 10 µM, first compound 0.316 µM
[34] = second compound 10 µM, first compound 1 µM
[35] = second compound 10 µM, first compound 3.16 µM
[36] = second compound 10 µM, first compound 10 µM
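Further: spheroids exposed to compounds for one week before readout.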
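Wherever viability, T/C is given: luminescence used as stand-in measure of viable cells; 100% = DMSO vehicle control viability.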

Question: `CC1COCCN1c1cc(C2(O)CC3CCC(C2)O3)c2cnn(-c3ccn[nH]3)c2n1` (centres undefined) + Nc1ccc(C#CCN(C(=O)Cc2ncc(C(F)(F)F)cc2C(F)(F)F)c2ccc(F)cc2)nn1 was tested. Which IC50 (second compound 0.0316 µM) did it give?
Answer: The IC50 was under 0.0316 µM.

Question: And the IC50 (second compound 0.1 µM)?
Answer: The IC50 was under 0.0316 µM.

Question: What about the IC50 (second compound 0.316 µM) of the same compound?
Answer: Its IC50 is under 0.0316 µM.

Question: And the IC50 (second compound 1 µM)?
Answer: The IC50 was under 0.0316 µM.

Question: What about the IC50 (second compound 3.16 µM) of the same compound?
Answer: Its IC50 is under 0.0316 µM.

Question: And the IC50 (second compound 10 µM)?
Answer: Its IC50 is under 0.0316 µM.

Question: What about the viability, T/C [1] of the same compound?
Answer: Its viability, T/C is 19.2%.

Question: And the viability, T/C [2]?
Answer: Its viability, T/C is 6.63%.

Question: What about the viability, T/C [3] of the same compound?
Answer: The viability, T/C was 4.19%.

Question: What about the viability, T/C [4] of the same compound?
Answer: The viability, T/C was 3.59%.

Question: What about the viability, T/C [5] of the same compound?
Answer: Its viability, T/C is 4.18%.

Question: And the viability, T/C [6]?
Answer: The viability, T/C was 5.72%.

Question: And the viability, T/C [7]?
Answer: The viability, T/C was 22%.

Question: What about the viability, T/C [8] of the same compound?
Answer: Its viability, T/C is 6.34%.

Question: And the viability, T/C [9]?
Answer: Its viability, T/C is 5.38%.

Question: And the viability, T/C [10]?
Answer: Its viability, T/C is 4.69%.

Question: What about the viability, T/C [11] of the same compound?
Answer: Its viability, T/C is 3.81%.

Question: What about the viability, T/C [12] of the same compound?
Answer: The viability, T/C was 2.94%.

Question: What about the viability, T/C [13] of the same compound?
Answer: Its viability, T/C is 22.7%.

Question: What about the viability, T/C [14] of the same compound?
Answer: Its viability, T/C is 6.83%.

Question: What about the viability, T/C [15] of the same compound?
Answer: The viability, T/C was 4.18%.

Question: And the viability, T/C [16]?
Answer: The viability, T/C was 3.94%.

Question: What about the viability, T/C [17] of the same compound?
Answer: Its viability, T/C is 3.9%.

Question: What about the viability, T/C [18] of the same compound?
Answer: The viability, T/C was 2.58%.

Question: What about the viability, T/C [19] of the same compound?
Answer: Its viability, T/C is 18.7%.

Question: What about the viability, T/C [20] of the same compound?
Answer: The viability, T/C was 5.19%.

Question: What about the viability, T/C [21] of the same compound?
Answer: Its viability, T/C is 4.87%.

Question: And the viability, T/C [22]?
Answer: Its viability, T/C is 3.6%.

Question: What about the viability, T/C [23] of the same compound?
Answer: Its viability, T/C is 3.79%.

Question: And the viability, T/C [24]?
Answer: The viability, T/C was 2.6%.

Question: And the viability, T/C [25]?
Answer: Its viability, T/C is 16.6%.

Question: What about the viability, T/C [26] of the same compound?
Answer: Its viability, T/C is 5.61%.

Question: And the viability, T/C [27]?
Answer: Its viability, T/C is 4.81%.

Question: And the viability, T/C [28]?
Answer: The viability, T/C was 3.47%.

Question: And the viability, T/C [29]?
Answer: Its viability, T/C is 3.8%.

Question: What about the viability, T/C [30] of the same compound?
Answer: The viability, T/C was 3.42%.

Question: What about the viability, T/C [31] of the same compound?
Answer: The viability, T/C was 16.1%.

Question: What about the viability, T/C [32] of the same compound?
Answer: Its viability, T/C is 6.98%.

Question: What about the viability, T/C [33] of the same compound?
Answer: The viability, T/C was 5.96%.

Question: And the viability, T/C [34]?
Answer: Its viability, T/C is 4.12%.

Question: And the viability, T/C [35]?
Answer: Its viability, T/C is 3.92%.

Question: What about the viability, T/C [36] of the same compound?
Answer: The viability, T/C was 3.05%.

Question: What does the source list for `O=C(Nc1ccc(O)c(NS(=O)(=O)c2ccc(F)cc2)c1)c1ccc(-c2ccccc2)cc1` + Nc1ccc(C#CCN(C(=O)Cc2ncc(C(F)(F)F)cc2C(F)(F)F)c2ccc(F)cc2)nn1?
Answer: IC50 (second compound 0.0316 µM): > 10 µM; IC50 (second compound 0.1 µM): > 10 µM; IC50 (second compound 0.316 µM): > 10 µM; IC50 (second compound 1 µM): > 10 µM; IC50 (second compound 3.16 µM): > 10 µM; IC50 (second compound 10 µM): > 10 µM; viability, T/C [1]: 100%; viability, T/C [2]: 97.3%; viability, T/C [3]: 84.3%; viability, T/C [4]: 107%; viability, T/C [5]: 92.7%; viability, T/C [6]: 78.2%; viability, T/C [7]: 104%; viability, T/C [8]: 99.1%; viability, T/C [9]: 106%; viability, T/C [10]: 86.1%; viability, T/C [11]: 97.2%; viability, T/C [12]: 61.6%; viability, T/C [13]: 105%; viability, T/C [14]: 102%; viability, T/C [15]: 107%; viability, T/C [16]: 94.9%; viability, T/C [17]: 97.4%; viability, T/C [18]: 71.5%; viability, T/C [19]: 102%; viability, T/C [20]: 90.8%; viability, T/C [21]: 89.6%; viability, T/C [22]: 95.3%; viability, T/C [23]: 99.8%; viability, T/C [24]: 66.2%; viability, T/C [25]: 102%; viability, T/C [26]: 103%; viability, T/C [27]: 106%; viability, T/C [28]: 97.8%; viability, T/C [29]: 91.7%; viability, T/C [30]: 75.7%; viability, T/C [31]: 102%; viability, T/C [32]: 99.9%; viability, T/C [33]: 111%; viability, T/C [34]: 89.5%; viability, T/C [35]: 99.5%; viability, T/C [36]: 59.5%
